Test system: promyelocytic leukemia cell strain HL-60
Assay: Cell differentiation inducing activity of retinoids on HL-60 in presence/absence of test compound (NBT reduction)
Assay type: cell-based
Procedure: The effects of the compounds of the above Examples 1 and 2 on cell differentiation induced by retinoids were studied. As retinoid compounds (i.e., agonists against the all-trans retinoic acid receptor), retinoic acid and Am80 (4-[(5,6,7,8-tetrahydro-5,5,8,8-tetramethyl-2-naphthalenyl)carbamoyl]benzoic acid) were used. Cell differentiation inducing activities of the above retinoids on promyelocytic leukemia cell strain HL-60 were measured in the presence and absence of the compounds of Examples 1 and 2 according to the method described in the Japanese Patent Unexamined Publication (KOKAI) No.(Sho)61-76440/1986. The degrees of the differentiation into granulocytic cell were determined by observing nuclear morphologies and measuring abilities to reduce nitroblue tetrazolium (NBT). This method is well known in the art as a test that enables accurate evaluation of the cell differentiation inducing activity of retinoids. The results are shown in the Table 2 set out below (in the table, NTB positive ratio represents a percent value of differentiated cells based on living cells).
Effect of the compound of Example 10 (HX801) on the cell differentiation inducing activity by a retinoid was examined. Am80 was used as the retinoid compound and the cell differentiation inducing activity of the above retinoid on promyelocytic leukemia cell strain HL-60 was determined in the presence or absence of the compound of HX801 in the same manner as Example 15. The results are shown in the Table 3 set out below (in the table, the symbol “-” indicates no addition).

Q: How did the NBT positive ratio (Am80 1.0 × 10^−8 M alone, test compound absent (HX600 series)) turn out when `CC1(C)CCC(C)(C)c2cc(NC(=O)c3ccc(C(=O)O)cc3)ccc21` [Am80, 4-[(5,6,7,8-tetrahydro-5,5,8,8-tetramethyl-2-naphthalenyl)carbamoyl]benzoic acid, reference compound] was run?
A: Its NBT positive ratio is 55%.

Q: What about the NBT positive ratio (Am80 1.0 × 10^−8 M alone, test compound absent (LE135 series)) of the same compound?
A: The NBT positive ratio was 55%.

Q: And the NBT positive ratio (Am80 1.1 × 10^−9 M alone, test compound absent (HX600 series))?
A: The NBT positive ratio was 44%.

Q: And the NBT positive ratio (Am80 1.1 × 10^−9 M alone, test compound absent (LE135 series))?
A: Its NBT positive ratio is 35%.

Q: And the NBT positive ratio (Am80 3.3 × 10^−9 M alone, test compound absent (HX600 series))?
A: Its NBT positive ratio is 53%.

Q: What about the NBT positive ratio (Am80 3.3 × 10^−9 M alone, test compound absent (LE135 series)) of the same compound?
A: Its NBT positive ratio is 51%.

Q: And the NBT positive ratio (Am80 3.7 × 10^−10 M alone, test compound absent (HX600 series))?
A: The NBT positive ratio was 15%.

Q: What about the NBT positive ratio (Am80 3.7 × 10^−10 M alone, test compound absent (LE135 series)) of the same compound?
A: The NBT positive ratio was 21%.

Q: And the “NBT positive ratio” value (Table 3: Am80 1.0 × 10^−9 M alone, no HX801)?
A: Its value is 48%.

Q: What about the “NBT positive ratio” value (Table 3: Am80 1.1 × 10^−10 M alone, no HX801) of the same compound?
A: Its value is 5%.

Q: And the “NBT positive ratio” value (Table 3: Am80 1.2 × 10^−11 M alone, no HX801)?
A: Its value is 0.6%.

Q: And the “NBT positive ratio” value (Table 3: Am80 3.3 × 10^−10 M alone, no HX801)?
A: Its value is 30%.

Q: What about the “NBT positive ratio” value (Table 3: Am80 3.7 × 10^−11 M alone, no HX801) of the same compound?
A: Its value is 3%.

Q: Which results are given for `CN1c2ccccc2N=C(c2ccc(C(=O)O)cc2)c2cc3c(cc21)C(C)(C)CCC3(C)C` [HX600, 4-[5H-2,3-(2,5-dimethyl-2,5-hexano)-5-methyldibenzo-[b,e][1,4]diazepine-11-yl]benzoic acid]?
A: NBT positive ratio (Am80 1.0 × 10^−8 M + test compound 1.0 × 10^−6 M (HX600 series)): 95%; NBT positive ratio (Am80 1.0 × 10^−8 M + test compound 1.0 × 10^−7 M): 91%; NBT positive ratio (Am80 1.0 × 10^−8 M + test compound 1.0 × 10^−8 M): 80%; NBT positive ratio (Am80 1.0 × 10^−8 M + test compound 1.0 × 10^−9 M): 69%; NBT positive ratio (Am80 1.1 × 10^−9 M + test compound 1.0 × 10^−6 M (HX600 series)): 93%; NBT positive ratio (Am80 1.1 × 10^−9 M + test compound 1.0 × 10^−7 M): 90%; NBT positive ratio (Am80 1.1 × 10^−9 M + test compound 1.0 × 10^−8 M): 65%; NBT positive ratio (Am80 1.1 × 10^−9 M + test compound 1.0 × 10^−9 M): 48%; NBT positive ratio (Am80 3.3 × 10^−9 M + test compound 1.0 × 10^−6 M (HX600 series)): 93%; NBT positive ratio (Am80 3.3 × 10^−9 M + test compound 1.0 × 10^−7 M): 93%; NBT positive ratio (Am80 3.3 × 10^−9 M + test compound 1.0 × 10^−8 M): 73%; NBT positive ratio (Am80 3.3 × 10^−9 M + test compound 1.0 × 10^−9 M): 64%; NBT positive ratio (Am80 3.7 × 10^−10 M + test compound 1.0 × 10^−6 M (HX600 series)): 67%; NBT positive ratio (Am80 3.7 × 10^−10 M + test compound 1.0 × 10^−7 M): 72%; NBT positive ratio (Am80 3.7 × 10^−10 M + test compound 1.0 × 10^−8 M): 41%; NBT positive ratio (Am80 3.7 × 10^−10 M + test compound 1.0 × 10^−9 M): 21%; NBT positive ratio (Retinoic acid 1.0 × 10^−8 M + test compound 1.0 × 10^−6 M): 91%; NBT positive ratio (Retinoic acid 1.0 × 10^−8 M + test compound 1.1 × 10^−7 M): 91%; NBT positive ratio (Retinoic acid 1.0 × 10^−8 M + test compound 3.3 × 10^−7 M): 91%; NBT positive ratio (Retinoic acid 1.1 × 10^−9 M + test compound 1.0 × 10^−6 M): 69%; NBT positive ratio (Retinoic acid 1.1 × 10^−9 M + test compound 1.1 × 10^−7 M): 68%; NBT positive ratio (Retinoic acid 1.1 × 10^−9 M + test compound 3.3 × 10^−7 M): 76%; NBT positive ratio (Retinoic acid 3.3 × 10^−9 M + test compound 1.0 × 10^−6 M): 90%; NBT positive ratio (Retinoic acid 3.3 × 10^−9 M + test compound 1.1 × 10^−7 M): 86%; NBT positive ratio (Retinoic acid 3.3 × 10^−9 M + test compound 3.3 × 10^−7 M): 90%

Q: For `CC1(C)CCC(C)(C)c2cc3c(cc21)Cc1ccccc1N=C3c1ccc(C(=O)O)cc1` [HX640, 4-[2,3-(2,5-dimethyl-2,5-hexano)-dibenzo[b,e]azepine-11-yl]benzoic acid], which NBT positive ratio (Am80 1.1 × 10^−10 M + test compound 1.0 × 10^−7 M) is on record?
A: The NBT positive ratio was 69%.

Q: And the NBT positive ratio (Am80 1.1 × 10^−10 M + test compound 1.0 × 10^−8 M)?
A: Its NBT positive ratio is 24%.

Q: What about the NBT positive ratio (Am80 1.1 × 10^−10 M + test compound 1.0 × 10^−9 M) of the same compound?
A: The NBT positive ratio was 5%.

Q: And the NBT positive ratio (Am80 1.1 × 10^−10 M + test compound 1.0 × 10^−10 M)?
A: Its NBT positive ratio is 7%.

Q: And the NBT positive ratio (Am80 3.3 × 10^−10 M + test compound 1.0 × 10^−6 M)?
A: Its NBT positive ratio is 85%.

Q: And the NBT positive ratio (Am80 3.3 × 10^−10 M + test compound 1.0 × 10^−7 M)?
A: The NBT positive ratio was 89%.

Q: What about the NBT positive ratio (Am80 3.3 × 10^−10 M + test compound 1.0 × 10^−8 M) of the same compound?
A: Its NBT positive ratio is 75%.

Q: And the NBT positive ratio (Am80 3.3 × 10^−10 M + test compound 1.0 × 10^−9 M)?
A: Its NBT positive ratio is 46%.

Q: And the NBT positive ratio (Am80 3.3 × 10^−10 M + test compound 1.0 × 10^−10 M)?
A: Its NBT positive ratio is 44%.

Q: What does the source list for `CN1C(=O)CN=C(c2ccc(C(=O)O)cc2)c2cc3c(cc21)C(C)(C)CCC3(C)C` [HX801, 4-[1,3-dihydro-7,8-(2,5-dimethyl-2,5-hexano)-1-methyl-2-oxo-2H-1,4-benzodiazepine-5-yl]benzoic acid]?
A: NBT positive ratio (Table 3: Am80 1.0 × 10^−9 M + HX801 1.0 × 10^−6 M): 77%; NBT positive ratio (Table 3: Am80 1.0 × 10^−9 M + HX801 1.1 × 10^−7 M): 63%; NBT positive ratio (Table 3: Am80 1.0 × 10^−9 M + HX801 3.3 × 10^−7 M): 76%; NBT positive ratio (Table 3: Am80 1.1 × 10^−10 M + HX801 1.0 × 10^−6 M): 48%; NBT positive ratio (Table 3: Am80 1.1 × 10^−10 M + HX801 1.1 × 10^−7 M): 22%; NBT positive ratio (Table 3: Am80 1.1 × 10^−10 M + HX801 3.3 × 10^−7 M): 28%; NBT positive ratio (Table 3: Am80 1.2 × 10^−11 M + HX801 1.0 × 10^−6 M): 2%; NBT positive ratio (Table 3: Am80 1.2 × 10^−11 M + HX801 1.1 × 10^−7 M): 1.4%; NBT positive ratio (Table 3: Am80 1.2 × 10^−11 M + HX801 3.3 × 10^−7 M): 2%; NBT positive ratio (Table 3: Am80 3.3 × 10^−10 M + HX801 1.0 × 10^−6 M): 71%; NBT positive ratio (Table 3: Am80 3.3 × 10^−10 M + HX801 1.1 × 10^−7 M): 49%; NBT positive ratio (Table 3: Am80 3.3 × 10^−10 M + HX801 3.3 × 10^−7 M): 55%; NBT positive ratio (Table 3: Am80 3.7 × 10^−11 M + HX801 1.0 × 10^−6 M): 4.4%; NBT positive ratio (Table 3: Am80 3.7 × 10^−11 M + HX801 1.1 × 10^−7 M): 4%; NBT positive ratio (Table 3: Am80 3.7 × 10^−11 M + HX801 3.3 × 10^−7 M): 2.3%; NBT positive ratio (Table 3: HX801 1.0 × 10^−6 M alone, no Am80): 1.1%; NBT positive ratio (Table 3: HX801 1.1 × 10^−7 M alone, no Am80): 1.1%; NBT positive ratio (Table 3: HX801 3.3 × 10^−7 M alone, no Am80): 0.3%

Q: Which NBT positive ratio (Am80 1.0 × 10^−8 M + test compound 1.0 × 10^−6 M (LE135 series)) does the source give for `CN1c2cc3c(cc2N=C(c2ccc(C(=O)O)cc2)c2ccccc21)C(C)(C)CCC3(C)C` [LE135, 4-(5H-7,8,9,10-tetrahydro-5,7,7,10,10-pentamethylbenzo[e]naphto[2,3-b][1,4]diazepin-13-yl)benzoic acid, reference compound] here?
A: The NBT positive ratio was 34%.

Q: What about the NBT positive ratio (Am80 1.0 × 10^−8 M + test compound 1.1 × 10^−7 M) of the same compound?
A: The NBT positive ratio was 62%.

Q: And the NBT positive ratio (Am80 1.0 × 10^−8 M + test compound 3.3 × 10^−7 M)?
A: The NBT positive ratio was 51%.

Q: And the NBT positive ratio (Am80 1.1 × 10^−9 M + test compound 1.0 × 10^−6 M (LE135 series))?
A: The NBT positive ratio was 2%.

Q: And the NBT positive ratio (Am80 1.1 × 10^−9 M + test compound 1.1 × 10^−7 M)?
A: Its NBT positive ratio is 23%.

Q: What about the NBT positive ratio (Am80 1.1 × 10^−9 M + test compound 3.3 × 10^−7 M) of the same compound?
A: Its NBT positive ratio is 5%.

Q: What about the NBT positive ratio (Am80 3.3 × 10^−9 M + test compound 1.0 × 10^−6 M (LE135 series)) of the same compound?
A: Its NBT positive ratio is 14%.

Q: And the NBT positive ratio (Am80 3.3 × 10^−9 M + test compound 1.1 × 10^−7 M)?
A: Its NBT positive ratio is 54%.

Q: What about the NBT positive ratio (Am80 3.3 × 10^−9 M + test compound 3.3 × 10^−7 M) of the same compound?
A: Its NBT positive ratio is 32%.

Q: And the NBT positive ratio (Am80 3.7 × 10^−10 M + test compound 1.0 × 10^−6 M (LE135 series))?
A: The NBT positive ratio was 1.3%.

Q: And the NBT positive ratio (Am80 3.7 × 10^−10 M + test compound 1.1 × 10^−7 M)?
A: Its NBT positive ratio is 3%.

Q: What about the NBT positive ratio (Am80 3.7 × 10^−10 M + test compound 3.3 × 10^−7 M) of the same compound?
A: The NBT positive ratio was 1.2%.

Q: And the “cell differentiation inducing activity of Am80” value (compound coexisting with Am80)?
A: The value was “significantly suppressed”.

Q: What does the source list for `CC1=C(/C=C/C(C)=C/C=C/C(C)=C/C(=O)O)C(C)(C)CCC1` [Retinoic acid, retinoic acid, reference compound]?
A: NBT positive ratio (Retinoic acid 1.0 × 10^−8 M alone, test compound absent): 54%; NBT positive ratio (Retinoic acid 1.1 × 10^−9 M alone, test compound absent): 14%; NBT positive ratio (Retinoic acid 3.3 × 10^−9 M alone, test compound absent): 36%

— US6476017B2, “Compounds activating pharmacological effect of retinoids” (Institute of Medicinal Molecular Design, Inc., priority 1995, dated 2002)
